According to patent US4485109A, “4-Aryl-4-piperidinecarbinols” (E. I. Du Pont de Nemours and Company, priority 1983, dated 1984):
Read-outs that look alike come from different tables or passages of the source.

System: tetrabenazine-induced depression
Experiment: Antagonism (prevention) of tetrabenazine-induced sedation and depression in mice, orally
Format: in vivo, mice (Carworth CF1 S female)
Details: Mus musculus, 1 h, tetrabenazine 32 mg/kg i.p. 30 min after compound
From the text: A standard procedure for detecting and comparing the antidepressant activity of the compounds of this invention, for which there is good correlation with human efficacy, is the prevention of tetrabenazine-induced sedation and depression in mice. (Everett, "The Dopa Response Potentiation Test and Its Use in Screening for Antidepressant Drugs", pp. 164-167 in Antidepressant Drugs [Proceedings of the First International Symposium], S. Garattini and M. N. G. Dukes (editors), 1967).
Groups of 10 Carworth CF1 S female mice, 18-21 g each, each fasted 1.5 h and were intubated with antagonist compounds at oral doses, such as 0, 1, 3, 9, 27 and 81 mg/kg in 0.20 mL of 1% Methocel® (methylcellulose).The mice were challenged 30 minutes later with tetrabenazine (as the methanesulfonate), 32 mg/kg intraperitoneally (dissolved in 0.20 mL 0.05% aqueous KCl at pH 2.0). One hour after administration of antagonist (30 minutes after administration of tetrabenazine) the mice were examined for signs of exploratory activity and ptosis (eye lid closure). Normal exploratory activity (relief from sedation) was recorded when a mouse, lifted by the tail from a group of 10 in a testing box and placed on a stainless steel testing box lid (12.5 inch (31.8 cm) by 8 inch (20.3 cm) with 0.33 inch mesh), either turned its head horizontally 30° in both directions or moved to the edge of the screen within 10 seconds after being placed on the screen. Relief from ptosis was recorded when, at exactly two seconds after placing the mouse facing the observer, lid closure was less than 50% in both eyes.

[1] = po, read-out: ORAL ED50 for prevention of exploratory loss, mice, oral, at one hour post-drug
[2] = po, read-out: ORAL ED50 for prevention of ptosis, mice, oral, at one hour post-drug

SMILES	ED50 [1]	ED50 [2]	ED50 (mice, oral, at one hour post-drug, read-out: ORAL ED50 for prevention of exploratory loss)	ED50 (mice, oral, at one hour post-drug, read-out: ORAL ED50 for prevention of ptosis)
CN1CCC(c2ccc(F)cc2)(C(C)(C)O)CC1 [Example 5, 4-(4'-Fluorophenyl)-α,α,1-trimethyl-4-piperidinemethanol]	0.48 mg/kg	0.33 mg/kg	–	–
CN1CCC(c2cccnc2)(C(C)(C)O)CC1 [Example 26, 4-(3'-Pyridyl)-α,α,1-trimethyl-4-piperidinemethanol]	29 mg/kg	18 mg/kg	–	–
CN(C)CCCN1c2ccccc2CCc2ccccc21 [Imipramine, reference compound]	2.2 mg/kg	0.94 mg/kg	–	–
COc1cccc(C2(C3(O)CCCCC3)CCN(C)CC2)c1 [Example 35, 1[1'-Methyl-4'-(3"-methoxyphenyl)-4'-piperidine]cyclohexanol]	1.4 mg/kg	1.1 mg/kg	–	–
COc1cccc(C2(C(C)(C)O)CCNCC2)c1 [Example 14, 4-(3'-Methoxyphenyl)-α,α-dimethyl-4-piperidinemethanol]	4.4 mg/kg	2.7 mg/kg	–	–
Cc1cccc(C2(C(C)(C)O)CCN(C)C(C)C2)c1 (stereo not drawn) [Example 44, 4-(3'-Tolyl)-α,α,1,2-tetramethyl-4-piperidinemethanol]	0.33 mg/kg	0.33 mg/kg	–	–
CN1CCC(c2ccc(N(C)C)cc2)(C(C)(C)O)CC1 [Example 33, 4-(4'-Dimethylaminophenyl)-α,α,1-trimethyl-4-piperidinemethanol]	0.78 mg/kg	0.35 mg/kg	–	–
COc1cccc(C2(C3(O)CCCC3)CCN(Cc3ccccc3)CC2)c1OC [Example 38, 1-[1'-Benzyl-4'-(2",3"-dimethoxyphenyl)-4'-piperidinyl]cyclopentanol]	> 81 mg/kg	> 81 mg/kg	–	–
COc1cccc(C2(C(C)(C)O)CCN(C)CC2)c1OC [Example 20, 4-(2',3'-Dimethoxyphenyl)-α,α,1-trimethyl-4-piperidinemethanol]	4.6 mg/kg	2.1 mg/kg	–	–
Cc1ccc(C2(C(C)(C)O)CCN(C)CC2)s1 [Example 25, 4-(5'-Methyl-2'-thienyl)-α,α,1-trimethyl-4-piperidinemethanol]	0.99 mg/kg	0.69 mg/kg	–	–
COc1cccc(C2(C3(O)CCCC3)CCN(C)CC2)c1OC [Example 3, 1-[1'-Methyl-4'-(2",3"-dimethoxyphenyl)-4'-piperidinyl]cyclopentanol]	14 mg/kg	2.8 mg/kg	–	–
COc1ccc(C2(C(C)(C)O)CCN(C)CC2)cc1 [Example 19, 4-(4'-Methoxyphenyl)-α,α,1-trimethyl-4-piperidinemethanol]	1.1 mg/kg	0.33 mg/kg	–	–
COc1cccc(C2(C3(O)CCCCCCC3)CCN(C)CC2)c1 [Example 28, 1-[1'-Methyl-4'-(3"-methoxyphenyl)-4'-piperidinyl]cyclooctanol]	3.8 mg/kg	1.7 mg/kg	–	–
CN(C)CCC=C1c2ccccc2CCc2ccccc21 [Amtriptyline, reference compound]	–	–	2.7 mg/kg	0.7 mg/kg
Cc1cc(C)cc(C2(C(C)(C)O)CCN(C)CC2)c1 [Example 12, 4-(5'-m-Xylyl)-α,α,1-trimethyl-4-piperidinemethanol]	0.11 mg/kg	0.064 mg/kg	–	–
CC(C)(O)C1(c2cccc(C(F)(F)F)c2)CCN2CCCC2C1 (stereo not drawn) [Example 45, 7-(3'-Trifluoromethylphenyl)-α,α-dimethyl-7-indolizidinemethano]	< 0.33 mg/kg	0.48 mg/kg	–	–
CCC(O)(CC)C1(c2cccc(OC)c2)CCN(C)CC1 [Example 18, 4-(3'-Methoxyphenyl)-α,α-diethyl-1-methyl-4-piperidinemethanol]	0.71 mg/kg	0.71 mg/kg	–	–

SMILES	ED50 [1]	ED50 [2]	ED50 (mice, oral, at one hour post-drug, read-out: ORAL ED50 for prevention of exploratory loss)	ED50 (mice, oral, at one hour post-drug, read-out: ORAL ED50 for prevention of ptosis)
Cc1ccc(C2(C(C)(C)O)CCN(C)CC2)cc1C [Example 13, 4-(4'-o-Xylyl)-α,α,1-trimethyl-4-piperidinemethanol]	0.3 mg/kg	0.23 mg/kg	–	–
CSc1ccc(C2(C(C)(C)O)CCN(C)CC2)cc1 [Example 21, 4-(4'-Methylthiophenyl)-α,α,1-trimethyl-4-piperidinemethanol]	1.3 mg/kg	1.3 mg/kg	–	–
CCOc1cccc(C2(C(C)(C)O)CCN(C)CC2)c1 [Example 40, 4-(3'-Ethoxyphenyl)-α,α,1-trimethyl-4-piperidinemethanol]	0.9 mg/kg	0.9 mg/kg	–	–
COc1cccc(C2(C3(O)CCCC3)CCN(C)CC2)c1 [Example 34, 1[1'-Methyl-4'-(3"-methoxyphenyl)-4'-piperidine]cyclopentanol]	0.48 mg/kg	0.45 mg/kg	–	–
CC1CCC(O)(C2(c3cccc(C(F)(F)F)c3)CCN(C)CC2)C1 (racemic) [Example 46, (±)-cis and trans-3-Methyl-1-[1'-methyl-4'-(3"-trifluoromethylphenyl)-4'-piperidinyl]cyclopentanol]	< 1 mg/kg	< 1 mg/kg	–	–
COc1cccc(C2(C(C)(C)O)CCN(C)CC2C)c1 (stereo not drawn) [Example 43, 4-(3'-Methoxyphenyl)-α,α,1,3-tetramethyl-4-piperidinemethanol]	7.2 mg/kg	5.8 mg/kg	–	–
CN1CCC(c2ccccc2)(C(C)(C)O)CC1 [Example 1, 4-Phenyl-α,α,1-trimethyl-4-piperidinemethanol]	5.6 mg/kg	0.78 mg/kg	–	–
Cc1ccc(C2(C(C)(C)O)CCN(C)CC2)cc1 [Example 11, 4-(4'-Tolyl)-α,α,1-trimethyl-4-piperidinemethanol]	0.69 mg/kg	0.57 mg/kg	–	–
COc1cccc(C2(C3(O)CCCCC3)CCN(C)CC2)c1OC [Example 23, 1-[1'-Methyl-4'-(2",3"-dimethoxyphenyl)-4'-piperidinyl]cyclohexanol]	38 mg/kg	17 mg/kg	–	–
CN1CCC(c2ccc(-c3ccccc3)cc2)(C(C)(C)O)CC1 [Example 42, 4-(4'-Biphenylyl)-α,α,1-trimethyl-4-piperidinemethanol]	1.5 mg/kg	1 mg/kg	–	–
COc1cccc(C2(C3(O)CCCCCC3)CCN(C)CC2)c1 [Example 27, 1-[1'-Methyl-4'-(3"-methoxyphenyl)-4'-piperidinyl]cycloheptanol]	1.4 mg/kg	0.9 mg/kg	–	–
Cc1ccccc1C1(C(C)(C)O)CCN(C)CC1 [Example 9, 4-(2'-Tolyl)-α,α,1-trimethyl-4-piperidinemethanol]	0.48 mg/kg	0.33 mg/kg	–	–
COc1ccccc1C1(C(C)(C)O)CCN(C)CC1 [Example 15, 4-(2'-Methoxyphenyl)-α,α,1-trimethyl-4-piperidinemethanol]	2.3 mg/kg	0.57 mg/kg	–	–
COc1cccc(C2(C3(O)CCC3)CCN(C)CC2)c1 [Example 22, 1-[1'-Methyl-4'-(3"-methoxyphenyl)-4'-piperidinyl]cyclobutanol]	0.92 mg/kg	0.67 mg/kg	–	–
CN1CCC(c2cccc(-c3ccccc3)c2)(C(C)(C)O)CC1 [Example 36, 4-(3'-Biphenylyl)-α,α,1-trimethyl-4-piperidinemethanol]	1.1 mg/kg	0.66 mg/kg	–	–
CN1CCC(c2cccn2C)(C(C)(C)O)CC1 [Example 24, 4-(1'-Methyl-2'-pyrrolyl)-α,α,1-trimethyl-4-piperidinemethanol]	1.2 mg/kg	0.78 mg/kg	–	–
COc1ccc(OC)c(C2(C(C)(C)O)CCN(C)CC2)c1 [Example 29, 4-(2',5'-Dimethoxyphenyl)-α,α,1-trimethyl-4-piperidinemethanol]	0.99 mg/kg	0.86 mg/kg	–	–
